Reference: patent publication US11149031B2, “Substituted N-(3-fluoropropyl)-pyrrolidine compounds, processes for their preparation and therapeutic uses thereof” (SANOFI, priority 2016, dated 2021)

What was measured:
[1] = test system: MCF7 cells (breast tumor cells) WT; experiment: Test B: cell proliferation/viability assay (CellTiter-Glo) on MCF7 WT; type: cell-based; settings: Homo sapiens, MCF7, 168 h, 7 days of compound exposure
Summary of the method: (§1)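 MCF7 WT / ER mutant lines (estradiol-independent, Tyr537Ser or Asp538Gly); stripped-serum, phenol red-free MEM; 9 pt 1:5 dil, 3-0.000001 μM final; 7 d; CellTiter-Glo RLU → % viability vs untreated, background-subtracted.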

[2] = test system: MCF7 cells expressing mutant estrogen receptor Tyr 537 Ser; experiment: Test B: cell proliferation/viability assay (CellTiter-Glo) on MCF7 Tyr 537 Ser mutant; type: cell-based; settings: Homo sapiens, MCF7, 168 h, MCF7 cells expressing ER Tyr 537 Ser mutant, 7 days of compound exposure, read-out: proliferation MCF7 Y537S IC50
Summary of the method: as §1

[3] = target: His6-ERα298-554 D538G mutant (ERα ligand-binding domain) (Homo sapiens (Human), UniProt P03372, D538G); experiment: Test A: biochemical antagonist activity, LanthaScreen TR-FRET ERα coactivator assay, D538G mutant; settings: asterisk (*): protocol using 10 nM estradiol; read-out: Antagonism D538G IC50
Chain of His6-ERα298-554 D538G mutant (ERα ligand-binding domain) (P03372 298-554 D538G): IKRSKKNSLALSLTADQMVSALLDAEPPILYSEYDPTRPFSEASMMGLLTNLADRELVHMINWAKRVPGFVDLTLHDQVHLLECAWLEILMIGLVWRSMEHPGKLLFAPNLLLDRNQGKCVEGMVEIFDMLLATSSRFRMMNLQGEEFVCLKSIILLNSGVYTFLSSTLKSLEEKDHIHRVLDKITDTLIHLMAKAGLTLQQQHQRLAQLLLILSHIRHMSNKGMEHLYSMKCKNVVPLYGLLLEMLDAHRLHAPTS
Summary of the method: (§2)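 His6-ERα LBD (aa 298–554), 0.5 nM, with Tb-anti-His6 antibody, 250 nM PGC1a peptide and 3 nM (or 10 nM) estradiol in pH 7.4 potassium phosphate/DTT buffer; incubated with compound overnight at room temperature. IC50 from 4-parameter logistic fit of TR-FRET 520:495 nm ratio.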

ERα in MCF7 cells = ERα in MCF7 cells (Homo sapiens (Human), UniProt P03372); experiment: Test C: estrogen receptor degradation activity, ERα in cell western assay in MCF7 cells; type: cell-based; settings: for DC50: 4 hours post compound addition, ERα in cell western, read-out: Degradation IC50; for % Degradation at 3 μM: 4 hours, relative to fulvestrant
Chain of ERα in MCF7 cells (P03372 whole entry): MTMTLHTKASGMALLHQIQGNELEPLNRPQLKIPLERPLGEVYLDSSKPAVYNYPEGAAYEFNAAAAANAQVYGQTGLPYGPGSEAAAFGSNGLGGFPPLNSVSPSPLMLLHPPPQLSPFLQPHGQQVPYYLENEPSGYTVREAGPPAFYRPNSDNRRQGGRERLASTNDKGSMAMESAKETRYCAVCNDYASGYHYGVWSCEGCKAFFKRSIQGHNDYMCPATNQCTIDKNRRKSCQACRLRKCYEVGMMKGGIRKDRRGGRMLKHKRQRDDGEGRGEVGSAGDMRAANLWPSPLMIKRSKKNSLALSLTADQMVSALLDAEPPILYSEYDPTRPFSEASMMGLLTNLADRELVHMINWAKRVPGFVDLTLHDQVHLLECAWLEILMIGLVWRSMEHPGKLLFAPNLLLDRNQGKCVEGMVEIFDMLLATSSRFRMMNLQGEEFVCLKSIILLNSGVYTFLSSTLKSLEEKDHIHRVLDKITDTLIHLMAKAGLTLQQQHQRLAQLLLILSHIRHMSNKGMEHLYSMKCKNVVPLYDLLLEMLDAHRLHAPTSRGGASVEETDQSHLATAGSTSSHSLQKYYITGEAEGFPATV
Summary of the method: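 Cells seeded in stripped-serum medium are dosed the next day across a nine-concentration series (3 down to 0.000018 μM). Four hours later they are fixed, blocked, probed overnight with anti-ERα antibody, then labelled with an Alexa 488 secondary and a DNA dye before plate scanning.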

[4] = target: His6-ERα298-554 WT (ERα ligand-binding domain) (Homo sapiens (Human), UniProt P03372); experiment: Test A: biochemical antagonist activity, LanthaScreen TR-FRET ERα coactivator assay, WT; settings: asterisk (*): protocol using 10 nM estradiol; read-out: Antagonism WT IC50
Chain of His6-ERα298-554 WT (ERα ligand-binding domain) (P03372 298-554): as the sequence (P03372 298-554 D538G) above, with G241D counted along it
Summary of the method: as §2

[5] = target: His6-ERα298-554 Y537S mutant (ERα ligand-binding domain) (Homo sapiens (Human), UniProt P03372, Y537S); experiment: Test A: biochemical antagonist activity, LanthaScreen TR-FRET ERα coactivator assay, Y537S mutant; settings: asterisk (*): protocol using 10 nM estradiol; read-out: Antagonism Y537S IC50
Chain of His6-ERα298-554 Y537S mutant (ERα ligand-binding domain) (P03372 298-554 Y537S): as the sequence (P03372 298-554 D538G) above, with Y240S, G241D counted along it
Summary of the method: as §2

[6] = test system: MCF7 cells expressing mutant estrogen receptor Asp 538 Gly; experiment: Test B: cell proliferation/viability assay (CellTiter-Glo) on MCF7 Asp 538 Gly mutant; type: cell-based; settings: Homo sapiens, MCF7, 168 h, MCF7 cells expressing ER Asp 538 Gly mutant, 7 days of compound exposure, read-out: proliferation MCF7 D538G IC50
Summary of the method: as §1

Structure (SMILES)	IC50 [1] [nM]	IC50 [2] [nM]	IC50 [3] [nM]	DC50 (ERα in MCF7 cells) [nM]	% Degradation at 3 μM (ERα in MCF7 cells) [%]	IC50 [4] [nM]	IC50 [5] [nM]	IC50 [6] [nM]
COCCOc1ccc(C2=C(c3ccc(O[C@H]4CCN(CCCF)C4)cc3)c3ccc(O)cc3OCC2)cc1 [Example 146, 5-[4-[(3S)-1-(3-fluoropropyl)pyrrolidin-3-yl]oxyphenyl]-4-[4-(2-methoxyethoxy)phenyl]-2,3-dihydro-1-benzoxepin-8-ol]	6	69	1170	2	86	51	845	12
Oc1ccc2c(c1)OCCC(c1ccc(OCCN3CCCC3)cc1)=C2c1ccc(O[C@H]2CCN(CCCF)C2)cc1 [Example 147, 5-[4-[(3S)-1-(3-fluoropropyl)pyrrolidin-3-yl]oxyphenyl]-4-[4-(2-pyrrolidin-1-ylethoxy)phenyl]-2,3-dihydro-1-benzoxepin-8-ol]	52	> 999	> 4000	49	77	390	3810	90
COc1c(C(=O)O)cccc1C1=C(c2ccc(O[C@H]3CCN(CCCF)C3)cc2)c2ccc(O)cc2OCC1 [Example 148, 3-[5-[4-[(3S)-1-(3-fluoropropyl)pyrrolidin-3-yl]oxyphenyl]-8-hydroxy-2,3-dihydro-1-benzoxepin-4-yl]-2-methoxy-benzoic acid]	222	> 999	> 4000	448	77	> 4000	> 4000	314
Oc1ccc2c(c1)OCCC(c1ccc(OC3CC3)cc1)=C2c1ccc(O[C@H]2CCN(CCCF)C2)cc1 [Example 149, 4-[4-(cyclopropoxy)phenyl]-5-[4-[(3S)-1-(3-fluoropropyl)pyrrolidin-3-yl]oxyphenyl]-2,3-dihydro-1-benzoxepin-8-ol]	0.5	12	303	0.9	91	23	289	2
Oc1ccc2c(c1)OCCC(c1ccc3c(c1)CCO3)=C2c1ccc(O[C@H]2CCN(CCCF)C2)cc1 [Example 151, 4-(2,3-dihydrobenzofuran-5-yl)-5-[4-[(3S)-1-(3-fluoropropyl)pyrrolidin-3-yl]oxyphenyl]-2,3-dihydro-1-benzoxepin-8-ol]	0.3	7	88	0.4	90	6	68	1
CCOc1ccc(C2=C(c3ccc(O[C@H]4CCN(CCCF)C4)cc3)c3ccc(O)cc3OCC2)c(F)c1 [Example 152, 4-(4-ethoxy-2-fluoro-phenyl)-5-[4-[(3S)-1-(3-fluoropropyl)pyrrolidin-3-yl]oxyphenyl]-2,3-dihydro-1-benzoxepin-8-ol]	0.5	4	154	0.2	92	9	107	3
CCOc1ccc(C2=C(c3ccc(O[C@H]4CCN(CCCF)C4)cc3)c3ccc(O)cc3OCC2)c(Cl)c1 [Example 153, 4-(2-chloro-4-ethoxy-phenyl)-5-[4-[(3S)-1-(3-fluoropropyl)pyrrolidin-3-yl]oxyphenyl]-2,3-dihydro-1-benzoxepin-8-ol]	0.3	3	117	0.2	91	6	86	0.7
COc1ccc(C2=C(c3ccc(O[C@H]4CCN(CCCF)C4)cc3)c3ccc(O)cc3OCC2)c(Cl)c1 [Example 154, 4-(2-chloro-4-methoxy-phenyl)-5-[4-[(3S)-1-(3-fluoropropyl)pyrrolidin-3-yl]oxyphenyl]-2,3-dihydro-1-benzoxepin-8-ol]	0.2	4	77	0.2	92	5	51	0.6
